Values quoted from earlier work in patent publication US20060172368A1, “CGT1 as an antifungal target” (priority 2002, published 2006).

Details: mice, DOX 2 mg/ml in 5% sucrose as drinking water, approx. 5 ml per day

C[C@H]1c2cccc(O)c2C(=O)C2=C(O)[C@]3(O)C(=O)C(C(N)=O)=C(O)[C@@H](N(C)C)[C@@H]3[C@@H](O)[C@@H]21 [doxycycline]
concentration of DOX in serum: more than 2 mg/ml of serum
